This note sets out measurements from patent US5656660A, “Compositions and methods for treating mast-cell mediated conditions” (Arris Pharmaceutical Corporation, priority 1995, dated 1997).

Experiment [1] has as its system antigen-challenged sheep. Put plainly: Allergic sheep model of asthma, oral (intergastric tube): Specific Lung Resistance (SRL). The class given is in vivo. The source says: (§1) The allergic sheep model of asthma was employed for the in vivo evaluation of the compounds of the invention as antiasthmatics. These methods have been published previously (see Abraham et al. (1983) Am. Rev. Respir. Dis. 128:839-844; Allegra et al. (1983) J. Appl. Physiol. 55:726-730; Russi et al. (1985) J. Appl. Physiol. 59:1416-1422; Soler et al. ((1989) J. Appl. Physiol. 67:406-413. Each sheep serves as its own control. Body weights for these animals ranged from 20-50 kilograms.
Three doses of Compound 2 (40 mg in 60 mL water) were administered to sheep through an intergastric tube 1 hr before challenge, 4 hours post-challenge, and 24 hours post-challenge.

A further experiment has as its target tryptase. In words: In vitro tryptase inhibition assay. The format is biochemical, human. The conditions noted are these: tosyl-Gly-Pro-Lys-p-nitroanilide 0.5 mM; 1 h preincubation at room temperature; pH 8.2. Here is the method:
The compounds to be assayed (approximately 1 mg) were dissolved in 200 μL dimethylsulfoxide (DMSO) and diluted 1:10 into buffer containing 50 millimolar (mM) Tris-HCl (pH 8.2), 100 mM sodium chloride, and 0.05% polyoxyethylenesorbitan monolaurate (Tween-20°, available from Sigma, St. Louis, Mo.). Seven additional threefold dilutions were made from the initial dilution into the same buffer supplemented with 10% DMSO. Aliquots (50 microliters, μL) from each of the eight dilutions in the series were transferred to individual wells in a 96-well U-bottom microtiter plate. […] The tryptase solution was prepared by placing 60 μg/mL of tryptase into solution with 10 mM MES (2-[N-Morpholino]ethane sulfonic acid) containing 2 mM CaCl2, 20% glycerol and 50 μg/mL heparin. The enzyme reaction was initiated with the addition of the synthetic tripeptide substrate, tosyl-Gly-Pro-Lys-p-nitroanilide (available from Sigma, 25 μL; 0.5 mM final concentration). […] Initial velocity measurements calculated from the progress curves by a kinetic analysis program (BatchKi; Petr Kuzmic, University of Wisconsin, Madison, Wis.) were used to determine apparent inhibition constants for each inhibitor.

The subject of experiment [2] is antigen-challenged sheep. Put plainly: Allergic sheep model of asthma: airway hyperresponsiveness (PC400, carbachol). The class given is in vivo. The following applies: aerosol; for PC400, concentration of carbachol that causes a 400% increase in SRL / onset of hyperresponsiveness: 24 h after antigen challenge.
Text: as §1
(§2) In these studies, […] of Compound 2 of the invention was dissolved in buffered saline and the total solution delivered as an aerosol 0.5 hours before, 4 hours after, and 24 hours after antigen challenge (total dose=27; n=6). […] The peak early response was taken as the average of the maximum values occurring immediately post-challenge. Peak late responses were calculated by averaging the maximum response values obtained for each animal within the 6-8 hour time period. This approach is conservative and eliminates the possible reduction in the late response due simply to averaging.
Twenty-four hours after antigen challenge in both the control and drug trial, the sheep developed airway hyperresponsiveness. Airway hyperresponsiveness is expressed as PC400, the concentration of carbachol that causes a 400% increase in SRL; therefore, a decrease in PC400 indicates hyperresponsiveness. […] The number of breath units fell to 10±4 for those animals in the control group.

In experiment [3] the test system is antigen-challenged sheep. In words: Allergic sheep model of asthma, aerosol: Specific Lung Resistance (SRL) after antigen challenge. The format is in vivo. The conditions noted are these: aerosol 0.5 h before, 4 h after and 24 h after challenge, n=6; for early response to antigen challenge (SRL): peak immediately post-challenge; for late response to antigen challenge (SRL): peak within 6-8 h. Here is the method: The initial asthmatic response can be evaluated in guinea pigs, and dogs, and particularly, with a basenji-greyhound cross strain which develops nonspecific airway hyperresponsiveness to numerous nonallergenic substances, such as methacholine and citric acid. […] In dual responding animals, the initial asthmatic response (IAR) is followed by a late asthmatic response (LAR) at 6-8 hours post-exposure.
The allergic sheep model (see below) was used to evaluate the potential antiasthmatic effects of the compounds of the present invention.
as §1, §2

A word on the Ki: it is the equilibrium dissociation constant of an inhibitor or competing ligand from its target. Lower therefore signals a stronger hold on the target. `N=C(N)Nc1ccc(CNC(=O)CNC(=O)OCc2ccc(COC(=O)NCC(=O)NCc3ccc(NC(=N)N)cc3)cc2)cc1` [Example 2, N,N'-(4-Guanidylbenzylaminecarbonylmethylene)-1,4-benzenedimethanol dicarbamate]: in the experiment on antigen-challenged sheep [1] (40 mg in 60 mL water by intergastric tube 1 h before, 4 h and 24 h post-challenge, untreated about 350), the “early phase SRL” value is reported as “about 270”. Further, the “late phase SRL” value with antigen-challenged sheep [1] (40 mg in 60 mL water by intergastric tube 1 h before, 4 h and 24 h post-challenge, untreated over 150) is given as “about 70”. Further, in the experiment with antigen-challenged sheep [1] (40 mg in 60 mL water, intergastric tube, three doses), the “anti-asthmatic properties when delivered orally” value was “significant anti-asthmatic properties”. The molecule further gave an inhibitory constant (Ki) on tryptase of 0.02 µM. In the experiment with antigen-challenged sheep [2], the “PC400, concentration of carbachol that causes a 400% increase in SRL” value came to 24±6 breath units; the onset of hyperresponsiveness entry is given as “block the onset of hyperresponsiveness”; the “improvement in airway function in antigen challenged sheep” value was “statistically significant improvement in airway function”. Moreover, in the experiment with antigen-challenged sheep [3], the “early response to antigen challenge (SRL)” value is given as “statistically significant reduction in the early response” and the “late response to antigen challenge (SRL)” value is “attenuated the late response”.

At tryptase, `CN(CC(=O)NCc1ccc(CN)cc1)C(=O)OCc1ccc(COC(=O)N(C)CC(=O)NCc2ccc(CN)cc2)cc1` [Example 18, Bis(p-xylylenediaminesarcosine)-1,4-benzenedimethanol dicarbamate] gave a Ki of 0.005 µM.

In turn, `NCC1CCC(CNC(=O)CCCC(=O)NCc2ccc(CNC(=O)CCCC(=O)NCC3CCC(CN)CC3)cc2)CC1` (stereo not shown) [Example 24, N,N'-Bis(N-(4-aminomethylcyclohexylmethyl)-glutaramido)-p-xylylene diamide] had a Ki on tryptase of 0.055 µM.

The molecule `C[C@@H](NC(=O)OCc1ccc(COC(=O)N[C@H](C)C(=O)NCc2ccc(CN)cc2)cc1)C(=O)NCc1ccc(CN)cc1` [Example 14, Bis(p-xylylenediamine-D-alanine)-1,4-benzenedimethanol dicarbamate] showed an inhibition constant Ki at tryptase of 0.366 µM.

`CN(Cc1ccc(CN(C)C(=O)CCC(=O)NCc2ccc(CN)cc2)cc1)C(=O)CCC(=O)NCc1ccc(CN)cc1` [Example 23] yielded an inhibition constant (Ki) at tryptase of 0.005 µM.

On tryptase, `N=C(N)NCc1ccc(NC(=O)CNC(=O)OCc2ccc(COC(=O)NCC(=O)Nc3ccc(CNC(=N)N)cc3)cc2)cc1` [Example 43, Bis((4-guanidomethylanilido)glycine)-1,4-benzenedimethanol dicarbamate] returned a Ki of 8.1 µM.

Turning to `CN(Cc1ccc(CN(C)C(=O)CNC(=O)NCc2ccc(CN)cc2)cc1)C(=O)CNC(=O)NCc1ccc(CN)cc1` [Example 52, N,N'-Bis(methyl)-bis(glycine-p-xylylenediamine urea)-p-xylylene diamide], the inhibition constant Ki on tryptase worked out at 0.079 µM.

In turn, `NCc1ccc(CNC(=O)CCC(=O)NCc2ccc(CNC(=O)CCC(=O)NCc3ccc(CN)cc3)cc2)cc1` [Example 8, N,N'-bis(N-(4-aminomethylbenzyl)-succinamido)-p-xylylenediamide] came in with an inhibition constant Ki at tryptase of 0.00345 µM. Besides, in the experiment with antigen-challenged sheep [2], the “PC400, concentration of carbachol that causes a 400% increase in SRL” value was found to be 15±10 breath units; the onset of hyperresponsiveness result is reported as “block the onset of hyperresponsiveness”; the “improvement in airway function in antigen challenged sheep” value is on record as “statistically significant improvement in airway function”. Further, in the experiment with antigen-challenged sheep [3], the “early response to antigen challenge (SRL)” value was “statistically significant early and late increases in SRL”; the “late response to antigen challenge (SRL)” value is “statistically significant early and late increases in SRL”.

In the case of `CN(Cc1ccc(CN(C)C(=O)CN(C)C(=O)NC[C@H]2CC[C@H](CN)CC2)cc1)C(=O)CN(C)C(=O)NC[C@H]1CC[C@H](CN)CC1` [Example 54, N,N'-Bis(methyl)-bis(sarcosine-trans-1,4-cyclohexylbis(methylamine)urea)-p-xylylene diamide], the Ki on tryptase stood at 0.608 µM.

Molecule `N=C(N)Nc1ccc(CNC2=CCCC(=O)N2C(=O)OCc2ccc(COC(=O)N3C(=O)CCC=C3NCc3ccc(NC(=N)N)cc3)cc2)cc1` [Example 40, Bis((R,S)-2-(4-guanidinobenzylamino)-2,3-dehydro-6-piperidone)-1,4-benzenedimethanol dicarbamate] came in with a Ki at tryptase of 0.463 µM.

With `NCc1ccc(C(=O)NCCCC(=O)NCc2ccc(CNC(=O)CCCNC(=O)c3ccc(CN)cc3)cc2)cc1` [Example 12, N,N'-Bis(N-(4-aminomethylbenzamido)-4-aminobutyric)-p-xylylene diamide], the affinity on tryptase, expressed as Ki, was 0.086 µM.

Turning to `NCc1ccc(CNC(=O)CCCNC(=O)c2ccc(C(=O)NCCCC(=O)NCc3ccc(CN)cc3)cc2)cc1` [Example 15, N,N'-Bis(N-(4-aminomethylbenzyl)butyramido)terephthalamide], at tryptase, affinity was put at a Ki of 0.011 µM.

In turn, `NC[C@H]1CC[C@H](C(=O)NCCCCNC(=O)OCc2ccc(COC(=O)NCCCCNC(=O)[C@H]3CC[C@H](CN)CC3)cc2)CC1` [Example 33, N,N'-Bis(trans-4-aminomethyl-cyclohexyl-1-amidobutyl)-1,4-benzene dimethanol dicarbamate] yielded an inhibitory constant (Ki) on tryptase of 0.048 µM.

At tryptase, `CN(Cc1ccc(CN(C)C(=O)CCCC(=O)NCc2ccc(CN)cc2)cc1)C(=O)CCCC(=O)NCc1ccc(CN)cc1` [Example 17, N,N'-Bis(N-(4-aminomethylbenzyl)glutaramido)-N,N'-bis(methyl)-p-xylylene diamide] gave an inhibitory constant (Ki) of 0.014 µM.

The molecule `N=C(N)Nc1ccc(CNC(=O)[C@@H]2CCCN2C(=O)OCc2ccc(COC(=O)N3CCC[C@H]3C(=O)NCc3ccc(NC(=N)N)cc3)cc2)cc1` [Example 4, Bis((4-quanidylbenzyl)-L-prolineamide-N^α -carbonyl)-1,4-dimethanolbenzene] displayed a Ki on tryptase of 4 µM.
